# Reference: patent publication US20080293076A1, “Method to improve barrier function of cell-cell junctions” (UMC Utrecht Holding B.V., priority 2007, published 2008)
# System: HUVEC
# Assay: Endothelial permeability assay: electrical resistance across HUVEC monolayer (ECIS)
# Format: cell-based, human
# Settings: for decreased resistance in PDZ-GEF2-depleted cells: PDZ-GEF2 siRNA
# Protocol: FIG. 2: PDZ-GEF2 knockdown in HUVECs leads to immature adherens junction and decreases endothelial resistance. Panel A: PDZ-GEF2 knockdown leads to immature VE-cadherin-based junctions in endothelial cells. HUVEC were transfected twice with scrambled, Epac1 or PDZ-GEFs siRNA and replated on glass coverslips. The cells were fixed when they formed a monolayer and immunostained with anti-VE-cadherin antibody. Panel B: Basal electrical resistance across HUVEC monolayers. Cells were treated as described in A and replated on electrodes. ECIS was measured continuously for 15 hours and the values reported are the final time points. […] The values reported correspond to the endothelial resistance measured 90 minutes after adding 007 to the culture media. * p<0.03 control mock vs 007; p<0.001 PDZ-GEF2.285 mock vs 007.
# 293T and A549 cells were transfected using FuGENE6 reagent for 48 hours (Roche Diagnostics Corporation). For siRNA, A549 cells and HUVEC were transfected using oligofectamine (Invitrogen) for 24 to 48 hours according to the manufacturer's instructions. In the case of the HUVEC, transfection was repeated after 24 hours. Samples were analyzed 48 hours after the second round of transfection. Oligos sequences (Dharmacon): PDZ-GEF2 (285: GGATCCAACTTATATAGAA) (SEQ ID NO:______); (289: GACACGGATTGTATTATTA) (SEQ ID NO:______); *Epac1 (GCACCTA CGTCTGCAACAA) (SEQ ID NO:______) and (CCATCATCCTGCGAGAAGA) (SEQ ID NO:______). 8-pCPT-2′O-Me-cAMP/8-pCPT -2′-OMe-cAMP (Biolog) was used at a final concentration of 100 μM. Quantification of the PDZ-GEF2 knockdown was performed using Scion Image (Scion Corporation).
# To assess endothelial permeability, we measured electrical resistance continuously across endothelial cell monolayer using the methodology known as “Electric Cell-Substrate Impedance Sensing” (ECIS).^[21] Briefly, HUVEC were grown to confluence on small gold electrodes and ECIS was subsequently monitored for up to 15 hours. Data was analyzed using the Applied Biophysics software.
# [1] = HUVEC, 100 μM, 30-minute stimulation
smiles,measurement,setting,value
CO[C@@H]1[C@@H]2OP(=O)(O)OC[C@H]2O[C@H]1n1c(Sc2ccc(Cl)cc2)nc2c(N)ncnc21 [8-pCPT-2′-OMe-cAMP],endothelial resistance in PDZ-GEF2 knockdown HUVEC,"90 minutes after adding 007, PDZ-GEF2.285, p<0.001 mock vs 007",rescues the PDZ-GEF2 knockdown phenotype
same,endothelial resistance in control HUVEC,"90 minutes after adding 007 to the culture media, p<0.03 mock vs 007",increases endothelial resistance
same,electrical resistance in Epac1 siRNA cells,"HUVEC transfected with Epac1 siRNA, 100 μM",minimal effect
same,electrical resistance in scrambled siRNA cells,[1],increased resistance
same,decreased resistance in PDZ-GEF2-depleted cells,[1],completely rescued
same,decreased resistance in PDZ-GEF2-depleted cells,"HUVEC, 100 μM, 30-minute stimulation, listed as 8-pCPT-2′OMe-cAMP",rescued
